# Earlier results, collected in patent US20170151272A1, “A NOVEL PHARMACEUTICAL COMPOSITION OF […] RIBAVIRIN” (SANOVEL ILAC SANAYI VE TICARET ANONIM SIRKETI, priority 2014, published 2017).
# Test system: chronic hepatitis C (CHC) infections
# Conditions: ribavirin alone
substance,measurement,setting,value
"1-β-Dribofuranosyl-1H-1,2,4-triazole-3-carboxamide [Ribavirin]",sustained virologic response,,did not produce any sustained virologic response
same,HCV RNA levels,during or after therapy,did not reduce
same,alanine aminotransferase (ALT) levels,"during the course of treatment, some patients with CHC",normalize W201 alanine aminotransferase (ALT) levels transiently
